Laboratory results reported in patent US6489469B1, “Method for storing or transporting erythritol solution” (Nikken Chemicals Co., Ltd., priority 1999, dated 2002).

Assays:
[1] = test system: Aspergillus niger IFO 6342; assay: Viable Count of Aspergillus niger IFO 6342 in Erythritol Solution; format: cell-based
Experimental: Erythritol solutions of respective concentrations in the range of from 30 to 60% were prepared. To these were inoculated Staphylococcus aureus IFO 13276, Bacillus subtilis IFO 3134, and Escherichia coli IFO 3972 as bacteria, Candida albicans IFO 1549 and Saccharomyces cerevisiae ATCC 9763 as yeasts, Aspergillus niger IFO 6342, Aspergillus flavus IFO 6343, and Penicillium funiculosum IFO 6345 as fungi, respectively, in a population (concentration) of 10,000 cells/mL or more. After the inoculation, the solutions were stored at 30, 37, 45, 50, or 60° C., respectively, for 56 days and the number of viable cell was determined daily. The determination of the number of viable cell was performed by a method of coating 0.1 mL of appropriately diluted sample cultivation on an agar plate and cultivating and counting the number of viable cell (the number of colony) that grew after the cultivation.

[2] = test system: Bacillus stearothermophilus IFO 12550; assay: Viable Count of Bacillus stearothermophilus IFO 12550 in Erythritol Solution (heat resistant bacteria); format: cell-based; details: 50° C., 30% w/w
Experimental: Erythritol solutions of respective concentrations in the range of from 30 to 70% were prepared. To these was inoculated Bacillus stearothermophilus IFO 12550 as a heat resistant bacterium in a population (concentration) of 10,000 cells/mL or more.
After the inoculation, the solutions were stored at 50, 60 or 75° C., respectively, for 56 days and the number of viable cell was determined daily. The determination of the number of viable cell was performed by in the same manner as in Example 1.

OC[C@@H](O)[C@@H](O)CO [Erythritol Solution, erythritol]
40 cells/mL: The Number of Viable Cell ([2]; Day 14)
7 days: time after which microbes died ([1]; temperature of 50° C. or more)
10000 or more cells/mL: The Number of Viable Cell ([2]; Day 0)
0 cells/mL: The Number of Viable Cell ([1]; 45° C., 30% w/w, Day 56) | The Number of Viable Cell ([1]; 45° C., 40% w/w, Day 28) | The Number of Viable Cell ([1]; 45° C., 40% w/w, Day 56) | The Number of Viable Cell ([1]; 45° C., 50% w/w, Day 28) | The Number of Viable Cell ([1]; 45° C., 50% w/w, Day 56) | The Number of Viable Cell ([1]; 50° C., 30% w/w, Day 3) | The Number of Viable Cell ([1]; 50° C., 30% w/w, Day 7) | The Number of Viable Cell ([1]; 50° C., 30% w/w, Day 14) | The Number of Viable Cell ([1]; 50° C., 30% w/w, Day 28) | The Number of Viable Cell ([1]; 50° C., 30% w/w, Day 56) | The Number of Viable Cell ([1]; 50° C., 40% w/w, Day 7) | The Number of Viable Cell ([1]; 50° C., 40% w/w, Day 14) | The Number of Viable Cell ([1]; 50° C., 40% w/w, Day 28) | The Number of Viable Cell ([1]; 50° C., 40% w/w, Day 56) | The Number of Viable Cell ([1]; 50° C., 50% w/w, Day 7) | The Number of Viable Cell ([1]; 50° C., 50% w/w, Day 14) | The Number of Viable Cell ([1]; 50° C., 50% w/w, Day 28) | The Number of Viable Cell ([1]; 50° C., 50% w/w, Day 56) | The Number of Viable Cell ([1]; 60° C., 30% w/w, Day 3) | The Number of Viable Cell ([1]; 60° C., 30% w/w, Day 7) | The Number of Viable Cell ([1]; 60° C., 30% w/w, Day 14) | The Number of Viable Cell ([1]; 60° C., 30% w/w, Day 28) | The Number of Viable Cell ([1]; 60° C., 30% w/w, Day 56) | The Number of Viable Cell ([1]; 60° C., 40% w/w, Day 3) | The Number of Viable Cell ([1]; 60° C., 40% w/w, Day 7) | The Number of Viable Cell ([1]; 60° C., 40% w/w, Day 14) | The Number of Viable Cell ([1]; 60° C., 40% w/w, Day 28) | The Number of Viable Cell ([1]; 60° C., 40% w/w, Day 56) | The Number of Viable Cell ([1]; 60° C., 50% w/w, Day 3) | The Number of Viable Cell ([1]; 60° C., 50% w/w, Day 7) | The Number of Viable Cell ([1]; 60° C., 50% w/w, Day 14) | The Number of Viable Cell ([1]; 60° C., 50% w/w, Day 28) | The Number of Viable Cell ([1]; 60° C., 50% w/w, Day 56) | The Number of Viable Cell ([1]; 60° C., 60% w/w, Day 3) | The Number of Viable Cell ([1]; 60° C., 60% w/w, Day 7) | The Number of Viable Cell ([1]; 60° C., 60% w/w, Day 14) | The Number of Viable Cell ([1]; 60° C., 60% w/w, Day 28) | The Number of Viable Cell ([1]; 60° C., 60% w/w, Day 56)
prevented from growing: growth of the microbes ([1]; temperature of 50° C. or more)
60 cells/mL: The Number of Viable Cell ([2]; Day 7) | The Number of Viable Cell ([2]; Day 28)
70 cells/mL: The Number of Viable Cell ([2]; Day 3)
50 cells/mL: The Number of Viable Cell ([2]; Day 56)
≥ 10000 cells/mL: The Number of Viable Cell ([1]; 45° C., 30% w/w, Day 0) | The Number of Viable Cell ([1]; 45° C., 30% w/w, Day 3) | The Number of Viable Cell ([1]; 45° C., 30% w/w, Day 7) | The Number of Viable Cell ([1]; 45° C., 30% w/w, Day 14) | The Number of Viable Cell ([1]; 45° C., 30% w/w, Day 28) | The Number of Viable Cell ([1]; 45° C., 40% w/w, Day 0) | The Number of Viable Cell ([1]; 45° C., 40% w/w, Day 3) | The Number of Viable Cell ([1]; 45° C., 40% w/w, Day 7) | The Number of Viable Cell ([1]; 45° C., 40% w/w, Day 14) | The Number of Viable Cell ([1]; 45° C., 50% w/w, Day 0) | The Number of Viable Cell ([1]; 45° C., 50% w/w, Day 3) | The Number of Viable Cell ([1]; 45° C., 50% w/w, Day 7) | The Number of Viable Cell ([1]; 45° C., 50% w/w, Day 14) | The Number of Viable Cell ([1]; 50° C., 30% w/w, Day 0) | The Number of Viable Cell ([1]; 50° C., 40% w/w, Day 0) | The Number of Viable Cell ([1]; 50° C., 40% w/w, Day 3) | The Number of Viable Cell ([1]; 50° C., 50% w/w, Day 0) | The Number of Viable Cell ([1]; 50° C., 50% w/w, Day 3) | The Number of Viable Cell ([1]; 60° C., 30% w/w, Day 0) | The Number of Viable Cell ([1]; 60° C., 40% w/w, Day 0) | The Number of Viable Cell ([1]; 60° C., 50% w/w, Day 0) | The Number of Viable Cell ([1]; 60° C., 60% w/w, Day 0)
